In US20160166532A1, “CARNITINE PALMITOYLTRANSFERASE 1 INHIBITORS FOR INHIBITION OF PATHOLOGICAL ANGIOGENESIS” (VIB VZW, priority 2013, published 2016):
Like-named read-outs stand apart in the source and are kept apart here.

Tests used:
[1] = Palmitate uptake and incorporation in organs; type: in vivo, mice; conditions: pups
[2] = Tolerability in etomoxir-treated pups (body weight, heart H&E staining); type: in vivo, mice
[3] = system: choroidal neovascularization (CNV) in male C57BL/6 mice; assay: Laser-induced choroidal neovascularization (CNV) model; type: in vivo; conditions: 35 mg/kg i.p. daily, two weeks, vs vehicle
From the text: The protein extravasation and hemorrhage associated with choroidal neovascularization (CNV) are primary causes of severe vision loss in retinal diseases such as age-related macular degeneration (ARMD). In ARMD the normal barrier function of Bruch's membrane is compromised, and CNV can develop, either under the retinal pigment epithelium (RPE) or photoreceptor outer segments. The choroidal neovascularization model serves as a reliable disease model for macular degeneration. Choroidal neovascularization (CNV) is induced in mice by laser burn. Laser burn (400 mW) is performed with Alcon PUREPOINT® equipment. CNV is measured by investigators masked to treatment. Eyes are enucleated after retrobulbar perfusion with FITC-dextran (HMW) and flat mounted. The CNV area, total lesion area, and their ratio are analyzed using Zeiss Axio Imager Z1 microscope with macros (KS300 image analysis software) on FITC-perfused (200 μL; 25 mg/mL; 10 minutes) flat mounts. The intraocular administration of siRNAs directed against CPT1a or the use of chemical inhibitors against CPT1a, is carried out, prior to or shortly after the induction of the laser burn, in the above-described murine model for age-related macular degeneration. […]

endothelial cells (ECs) = assay: 3H palmitate oxidation assay (fatty acid oxidation, 3H-9,10-palmitic acid tracer); type: cell-based
From the text: (§1) CPT1 enzymes are rate limiting for fatty acid oxidation and, of the three isoforms, CPTla is the most abundant in ECs. To explore the functional relevance of CPT1a in ECs, its expression was compared in quiescent versus angiogenic EC monolayers. Strikingly, CPT1a RNA and protein levels were increased during contact inhibition—an in vitro model of quiescence—when compared to proliferating/migrating ECs. […] To correlate these expression levels to functional relevance, fatty acid oxidation was measured using a ^3H-9,10-palmitic acid tracer. […] To confirm that fatty acid oxidation in ECs is primarily CPT1a driven, its expression was blocked using a shRNA directed against CPT1a. The shRNA sequence used was 5′-[…] […]-3′ (SEQ ID NO:1).
(§2) Even more, using notch signaling as a model of quiescence, the notch-induced increase in FAO was abrogated upon CPT1a KD.

CPT1a = biological target: T1, CPT1a (Homo sapiens, UniProt P50416); assay: CPT1a protein levels after shRNA knock down in ECs; type: cell-based
T1 construct: of the three isoforms, CPTla is the most abundant in ECs; endogenous in cells; host or cells: endothelial cells (ECs)
T1 sequence (P50416 1-773): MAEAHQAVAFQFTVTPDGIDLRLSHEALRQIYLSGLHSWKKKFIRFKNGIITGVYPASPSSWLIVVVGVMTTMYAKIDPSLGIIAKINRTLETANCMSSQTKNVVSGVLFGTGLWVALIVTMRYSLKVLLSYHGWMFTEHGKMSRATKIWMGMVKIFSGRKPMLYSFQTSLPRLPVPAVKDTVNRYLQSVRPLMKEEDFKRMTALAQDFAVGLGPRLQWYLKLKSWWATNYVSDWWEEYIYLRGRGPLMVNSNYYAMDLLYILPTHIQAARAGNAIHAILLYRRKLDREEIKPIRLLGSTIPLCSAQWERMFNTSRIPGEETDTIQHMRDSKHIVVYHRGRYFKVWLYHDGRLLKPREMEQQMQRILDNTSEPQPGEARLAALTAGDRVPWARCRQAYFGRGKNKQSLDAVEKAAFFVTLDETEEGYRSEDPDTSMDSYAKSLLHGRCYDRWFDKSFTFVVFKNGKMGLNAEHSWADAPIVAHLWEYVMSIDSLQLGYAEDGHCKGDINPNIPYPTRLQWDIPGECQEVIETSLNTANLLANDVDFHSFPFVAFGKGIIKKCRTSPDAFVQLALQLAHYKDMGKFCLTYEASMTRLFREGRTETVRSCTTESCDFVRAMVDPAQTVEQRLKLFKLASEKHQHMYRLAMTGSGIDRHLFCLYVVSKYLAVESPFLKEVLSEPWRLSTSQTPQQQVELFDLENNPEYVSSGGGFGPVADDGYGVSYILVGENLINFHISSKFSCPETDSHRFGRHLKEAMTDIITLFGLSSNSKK
From the text: as §1, §2

angiogenic EC monolayers = assay: 3H thymidine incorporation assay (EC proliferation); type: cell-based
From the text: (§3) In angiogenic EC monolayers, CPT1a knock down (KD) reduced EC proliferation by 40% as measured by ^3H thymidine incorporation (see FIG. 2). Furthermore, CPT1a KD EC were found more frequently in the G0/G1 phase of the cell cycle. EC migration on the other hand was not affected as measured by scratch wound assay and modified Boyden chamber even when proliferation was blocked using mitomycin C (see FIG. 3). To study the effect of CPT1a KD on vessel sprouting, an in vitro EC spheroid sprouting assay was employed. In this model, EC are cultured in suspension to form spheroids in hanging drops, embedded in a collagen I matrix and subsequently stimulated with growth factors to allow sprouts to be formed. In this model, a tip cell with filopodia leads the sprout while the stalk cells trail behind and proliferate to elongate the sprout. […] To further investigate this observation, a mosaic spheroid model was employed to assess tip cell competition. Here, 50% WT^RED and 50% WT^GFP cells are mixed and, when the spheroids have sprouted, which one is at the tip is determined. In this model, tip cell position can be determined via migration and/or proliferation. In case of a WT/WT mixture, 50% green and 50% red cells are at the tip. However, when 50% WT^RED cells are mixed with 50% CPT1a^KD/GFP cells, less green cells were present at the tip. […]

ECs [4] = assay: Scratch wound assay and modified Boyden chamber (EC migration); type: cell-based; conditions: scratch wound assay, modified Boyden chamber
From the text: as §3

EC spheroids = assay: In vitro EC spheroid sprouting assay; type: cell-based
From the text: In angiogenic EC monolayers, CPT1a knock down (KD) reduced EC proliferation by 40% as measured by ^3H thymidine incorporation (see FIG. 2). Furthermore, CPT1a KD EC were found more frequently in the G0/G1 phase of the cell cycle. EC migration on the other hand was not affected as measured by scratch wound assay and modified Boyden chamber even when proliferation was blocked using mitomycin C (see FIG. 3). To study the effect of CPT1a KD on vessel sprouting, an in vitro EC spheroid sprouting assay was employed. In this model, EC are cultured in suspension to form spheroids in hanging drops, embedded in a collagen I matrix and subsequently stimulated with growth factors to allow sprouts to be formed. In this model, a tip cell with filopodia leads the sprout while the stalk cells trail behind and proliferate to elongate the sprout. […] To further investigate this observation, a mosaic spheroid model was employed to assess tip cell competition. Here, 50% WT^RED and 50% WT^GFP cells are mixed and, when the spheroids have sprouted, which one is at the tip is determined. In this model, tip cell position can be determined via migration and/or proliferation. In case of a WT/WT mixture, 50% green and 50% red cells are at the tip. However, when 50% WT^RED cells are mixed with 50% CPT1a^KD/GFP cells, less green cells were present at the tip. This effect was abrogated when spheroids were treated with mitomycin C.

ECs [5] = assay: Energy charge, ATP levels and AMPK phosphorylation in ECs; type: cell-based
From the text: Next, how fatty acid oxidation could exert its proliferation-dependent effects on vessel sprouting was questioned. Through fueling the TCA with […] molecules of acetyl-COA, 1 palmitate can generate much more ATP via oxidative phosphorylation compared to 1 glucose. However, as was shown previously, angiogenic ECs rely primarily on glycolysis for ATP production. Nevertheless, it was desired to rule out that the CPT1a-induced proliferation defect was caused by ATP depletion. […] One would also expect that whenever cells are in ATP distress, they would up-regulate a major ATP-producing pathway. […] Furthermore, no signs of energy distress were observed, as shown by AMPK-p, and no induction of autophagy was observed as measured by LC3.

ECs [6] = assay: Intracellular H2O2 levels in ECs; type: cell-based
From the text: Proliferation requires many building blocks such as protein, RNA, DNA, . . . to allow duplication of one cell into two daughter cells. Up until now, the role of mitochondria in ECs was thought to be for signaling purposes and not so much for biomass production, as ECs are highly glycolytic. […] FAO can fuel the TCA cycle with […] molecules of acetyl COA, thereby providing plenty of intermediates for biomass as well as producing NADPH that can be used for anti-oxidant defense or lipid synthesis. […] However, this increase in ROS could not explain the proliferation defect as no DNA damage checkpoint was activated in these cells as measured by ATM-P, p53 and p21 levels. […] Therefore, it was hypothesized that blocking FAO would reduce TCA intermediates needed for biomass production. Even more, using ^13C palmitate, it was shown that CPT1a KD cells incorporate less 13C label in TCA intermediates and in biomass.

Compound: CCOC(=O)[C@@]1(CCCCCCOc2ccc(Cl)cc2)CO1 [etomoxir]
- 14C palmitate uptake in organs [1]: significantly reduced
- incorporation of 13C palmitate in TCA intermediates in organs [1]: significantly reduced
- defects in the heart (H&E staining) [2]: did not cause any defects in the heart
- reduction of neovascularization area [3]: less than 50%
- pathological neovascular area (in words) ([3]; p<0.05): reduced the pathological neovascular area

Compound: shCPT1a: shRNA directed against CPT1a, SEQ ID NO:1: 5'-CCGGGCCATGAAGCTCTTAGACAAACTCGAGTTTGTCTAAGAGCTTCATGGCTTTTTG-3'
- fatty acid oxidation (endothelial cells (ECs)): reduced fatty acid oxidation
- fatty acid oxidation (endothelial cells (ECs); listed as shRNA directed against CPT1a): significantly reduced
- CPT1a protein levels (CPT1a): nearly undetectable levels
- proliferation (in words) (angiogenic EC monolayers): reduced proliferation
- reduction of EC proliferation (angiogenic EC monolayers; angiogenic EC monolayers): 40%
- EC migration (ECs [4]): no differences in migration
- EC migration (ECs [4]; listed as CPT1a KD): not affected
- vessel sprouting of EC spheroids (EC spheroids; collagen I matrix, growth factor stimulated): fewer and shorter sprouts
- ATP distress (Western blot for AMPK phosphorylation) (ECs [5]): does not show any ATP distress
- energy charge (ECs [5]): did not affect
- increase in intracellular H2O2 levels (ECs [6]): 40%

Compound: CC(=O)N[C@@H](CS)C(=O)O [NAC]
- rescue of reduced sprouting upon CPT1a silencing in quiescent spheroids (EC spheroids; NICD overexpression model of quiescence): did rescue the phenotype

Compound: CC(=O)O [acetate]
- rescue of reduced sprouting of CPT1a knock down spheroids (EC spheroids; 20 mM supplementation): rescued
